What was measured:
PARP1 = PARP1 (Homo sapiens (Human), UniProt P09874); assay: PARP fluorescence anisotropy binding assay, PARP1
PARP2 = PARP2 (Homo sapiens (Human), UniProt Q9UGN5); assay: PARP fluorescence anisotropy binding assay, PARP2
Method: Recombinant full length PARP2 protein was diluted to 6 nM with 50 mM Tris pH 8, 0.001% Triton X100, 10 mM MgCl2, 150 mM NaCl and incubated for four hours with an equivalent volume of 2 nM fluorescent probe diluted with 50 mM Tris pH 8, 0.001% Triton X100, 10 mM MgCl2, 150 mM NaCl. The final DMSO concentration of the probe was kept below 1% (v/v).
Fluorescence anisotropy of the probe when bound to the proteins was measured using a BMG Pherastar FSX® in the presence of test compounds or solvent control and the effect on anisotropy determined. % inhibition values for different test compound concentrations were calculated and fitted to a four parameter logistic plot in order to determine the IC50 value.

PARP1, sequence (P09874 whole entry): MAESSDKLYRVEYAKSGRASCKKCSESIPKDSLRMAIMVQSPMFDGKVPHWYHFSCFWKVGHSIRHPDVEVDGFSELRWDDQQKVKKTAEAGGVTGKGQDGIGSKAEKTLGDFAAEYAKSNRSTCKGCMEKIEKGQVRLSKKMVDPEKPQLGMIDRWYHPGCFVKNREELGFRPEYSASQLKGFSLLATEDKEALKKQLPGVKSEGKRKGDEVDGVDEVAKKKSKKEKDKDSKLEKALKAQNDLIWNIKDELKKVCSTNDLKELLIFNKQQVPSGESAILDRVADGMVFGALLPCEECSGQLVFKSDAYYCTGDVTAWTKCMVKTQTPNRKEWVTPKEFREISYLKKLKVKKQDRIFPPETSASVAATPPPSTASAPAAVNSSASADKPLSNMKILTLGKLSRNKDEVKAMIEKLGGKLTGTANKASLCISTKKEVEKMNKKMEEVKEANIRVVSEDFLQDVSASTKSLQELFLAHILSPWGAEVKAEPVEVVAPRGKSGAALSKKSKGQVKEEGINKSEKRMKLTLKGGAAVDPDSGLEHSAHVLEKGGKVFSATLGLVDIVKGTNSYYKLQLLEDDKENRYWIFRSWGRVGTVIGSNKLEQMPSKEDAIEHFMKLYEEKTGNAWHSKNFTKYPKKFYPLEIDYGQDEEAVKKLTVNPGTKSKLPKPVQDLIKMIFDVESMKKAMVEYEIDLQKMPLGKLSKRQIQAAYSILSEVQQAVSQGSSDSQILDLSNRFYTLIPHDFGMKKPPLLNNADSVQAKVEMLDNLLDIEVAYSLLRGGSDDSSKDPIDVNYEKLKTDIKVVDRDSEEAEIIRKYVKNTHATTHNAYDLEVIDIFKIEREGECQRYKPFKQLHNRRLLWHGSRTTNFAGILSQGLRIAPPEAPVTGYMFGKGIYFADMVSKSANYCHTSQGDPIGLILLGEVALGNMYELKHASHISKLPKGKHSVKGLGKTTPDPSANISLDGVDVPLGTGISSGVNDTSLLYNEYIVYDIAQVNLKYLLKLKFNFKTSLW
PARP2, sequence (Q9UGN5 whole entry): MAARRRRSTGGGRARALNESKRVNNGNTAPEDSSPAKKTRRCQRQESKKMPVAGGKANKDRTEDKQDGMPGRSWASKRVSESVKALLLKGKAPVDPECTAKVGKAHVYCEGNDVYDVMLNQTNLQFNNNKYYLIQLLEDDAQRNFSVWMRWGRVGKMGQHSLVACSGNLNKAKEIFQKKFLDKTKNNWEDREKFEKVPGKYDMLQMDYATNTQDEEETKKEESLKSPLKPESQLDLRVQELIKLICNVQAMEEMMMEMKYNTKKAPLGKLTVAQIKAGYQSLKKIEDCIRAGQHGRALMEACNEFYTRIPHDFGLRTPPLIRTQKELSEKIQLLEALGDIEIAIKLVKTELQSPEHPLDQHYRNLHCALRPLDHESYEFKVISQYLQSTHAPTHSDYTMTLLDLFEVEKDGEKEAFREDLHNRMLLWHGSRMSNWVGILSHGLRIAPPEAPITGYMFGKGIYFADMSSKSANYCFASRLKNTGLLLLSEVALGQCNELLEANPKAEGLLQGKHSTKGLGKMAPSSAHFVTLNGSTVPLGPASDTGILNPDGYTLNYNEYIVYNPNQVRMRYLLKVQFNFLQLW

Row | IC50 (PARP1) | IC50 (PARP2) | SMILES
1 | 11 nM | 15000 nM | CNC(=O)c1ccc(N2CCN(Cc3ccc4nc(C)c(=O)[nH]c4c3C)CC2)cn1 [Example 2, 5-[4-[(2,5-dimethyl-3-oxo-4H-quinoxalin-6-yl)methyl]piperazin-1-yl]-N-methyl-pyridine-2-carboxamide]
2 | 5 nM | > 63000 nM | Cc1nc2ccc(CN3CCN(c4ccc(C(N)=O)nc4F)CC3)c(C)c2[nH]c1=O [Example 5, 5-[4-[(2,5-dimethyl-3-oxo-4H-quinoxalin-6-yl)methyl]piperazin-1-yl]-6-fluoro-pyridine-2-carboxamide]
3 | 4 nM | > 100000 nM | Cc1nc(C(N)=O)ccc1N1CCN(Cc2ccc3nc(C)c(=O)[nH]c3c2F)CC1 [Example 6, 5-[4-[(5-fluoro-2-methyl-3-oxo-4H-quinoxalin-6-yl)methyl]piperazin-1-yl]-6-methyl-pyridine-2-carboxamide]
4 | 6 nM | 58000 nM | Cc1nc(C(N)=O)ccc1N1CCN(Cc2ccc3nc(C)c(=O)[nH]c3c2C)CC1 [Example 7, 5-[4-[(2,5-dimethyl-3-oxo-4H-quinoxalin-6-yl)methyl]piperazin-1-yl]-6-methyl-pyridine-2-carboxamide]
5 | 4 nM |  | CCc1nc2ccc(CN3CCN(c4ccc(C(=O)NC)nc4Cl)CC3)c(Cl)c2[nH]c1=O [Example 8, 6-chloro-5-[4-[(5-chloro-2-ethyl-3-oxo-4H-quinoxalin-6-yl)methyl]piperazin-1-yl]-N-methyl-pyridine-2-carboxamide]
6 | 13 nM |  | CCc1nc2ccc(CN3CCN(c4ccc(C(=O)NC)nc4)CC3)c(Cl)c2[nH]c1=O [Example 10, 5-[4-[(5-chloro-2-ethyl-3-oxo-4H-quinoxalin-6-yl)methyl]piperazin-1-yl]-N-methyl-pyridine-2-carboxamide]
7 | 3 nM |  | CCc1nc2ccc(CN3CCN(c4ccc(C(=O)NC)nc4C)CC3)c(Cl)c2[nH]c1=O [Example 11, 5-[4-[(5-chloro-2-ethyl-3-oxo-4H-quinoxalin-6-yl)methyl]piperazin-1-yl]-N,6-dimethyl-pyridine-2-carboxamide]
8 | 10 nM |  | CNC(=O)c1ccc(N2CCN(Cc3ccc4nc(C)c(=O)[nH]c4c3Cl)CC2)cn1 [Example 16, 5-[4-[(5-chloro-2-methyl-3-oxo-4H-quinoxalin-6-yl)methyl]piperazin-1-yl]-N-methyl-pyridine-2-carboxamide]
9 | 6 nM |  | CNC(=O)c1ccc(N2CCN(Cc3ccc4nc(C)c(=O)[nH]c4c3Cl)CC2)c(F)n1 [Example 17, 5-[4-[(5-chloro-2-methyl-3-oxo-4H-quinoxalin-6-yl)methyl]piperazin-1-yl]-6-fluoro-N-methyl-pyridine-2-carboxamide]
10 | 6 nM | 87000 nM | Cc1nc2ccc(CN3CCN(c4ccc(C(N)=O)nc4F)CC3)c(F)c2[nH]c1=O [Example 22, 6-fluoro-5-[4-[(5-fluoro-2-methyl-3-oxo-4H-quinoxalin-6-yl)methyl]piperazin-1-yl]pyridine-2-carboxamide]
11 | 5 nM | > 100000 nM | CCc1nc2ccc(CN3CCN(c4ccc(C(N)=O)nc4)CC3)c(F)c2[nH]c1=O [Example 25, 5-[4-[(2-ethyl-5-fluoro-3-oxo-4H-quinoxalin-6-yl)methyl]piperazin-1-yl]pyridine-2-carboxamide]
12 | 5 nM | 88000 nM | CCc1nc2ccc(CN3CCN(c4ccc(C(N)=O)nc4C)CC3)c(F)c2[nH]c1=O [Example 26, 5-[4-[(2-ethyl-5-fluoro-3-oxo-4H-quinoxalin-6-yl)methyl]piperazin-1-yl]-6-methyl-pyridine-2-carboxamide]
13 | 167 nM | > 100000 nM | CNC(=O)c1ccc(N2CCN(Cc3ccc4ncc(=O)[nH]c4c3F)CC2)cn1 [Example 33, 5-[4-[(5-fluoro-3-oxo-4H-quinoxalin-6-yl)methyl]piperazin-1-yl]-N-methyl-pyridine-2-carboxamide]
14 | 30 nM | > 100000 nM | CNC(=O)c1ccc(N2CCN(Cc3ccc4ncc(=O)[nH]c4c3F)CC2)c(C)n1 [Example 35, 5-[4-[(5-fluoro-3-oxo-4H-quinoxalin-6-yl)methyl]piperazin-1-yl]-N,6-dimethyl-pyridine-2-carboxamide]
15 | 22 nM | > 100000 nM | CNC(=O)c1ccc(N2CCN(Cc3ccc4ncc(=O)[nH]c4c3F)CC2)c(F)n1 [Example 36, 6-fluoro-5-[4-[(5-fluoro-3-oxo-4H-quinoxalin-6-yl)methyl]piperazin-1-yl]-N-methyl-pyridine-2-carboxamide]
16 | 5 nM | > 88000 nM | CCc1nc2ccc(CN3CCN(c4ccc(C(=O)NC)nc4C)CC3)c(C)c2[nH]c1=O [Example 42, 5-[4-[(2-ethyl-5-methyl-3-oxo-4H-quinoxalin-6-yl)methyl]piperazin-1-yl]-N,6-dimethyl-pyridine-2-carboxamide]
17 | 5 nM | > 100000 nM | CCc1nc2ccc(CN3CCN(c4ccc(C(=O)NC)nc4F)CC3)c(C)c2[nH]c1=O [Example 43, 5-[4-[(2-ethyl-5-methyl-3-oxo-4H-quinoxalin-6-yl)methyl]piperazin-1-yl]-6-fluoro-N-methyl-pyridine-2-carboxamide]
18 | 128 nM | > 100000 nM | CCc1nc2ccc(CN3CCN(c4ccc(C(=O)NC)nc4)CC3)c(C)c2[nH]c1=O [Example 44, 5-[4-[(2-ethyl-5-methyl-3-oxo-4H-quinoxalin-6-yl)methyl]piperazin-1-yl]-N-methyl-pyridine-2-carboxamide]
19 | 10 nM | > 100000 nM | CCNC(=O)c1ccc(N2CCN(Cc3ccc4nc(C)c(=O)[nH]c4c3F)CC2)c(C)n1 [Example 46, N-ethyl-5-[4-[(5-fluoro-2-methyl-3-oxo-4H-quinoxalin-6-yl)methyl]piperazin-1-yl]-6-methyl-pyridine-2-carboxamide]
20 | 60 nM | 35000 nM | CNC(=O)c1ccc(N2CCN(Cc3ccc4nc(C(F)(F)F)c(=O)[nH]c4c3F)CC2)cn1 [Example 50, 5-[4-[[5-fluoro-3-oxo-2-(trifluoromethyl)-4H-quinoxalin-6-yl]methyl]piperazin-1-yl]-N-methyl-pyridine-2-carboxamide]
21 | 6 nM | 1200 nM | CNC(=O)c1ccc(N2CCN(Cc3ccc4nc(C(C)C)c(=O)[nH]c4c3F)CC2)c(F)n1 [Example 51, 6-fluoro-5-[4-[(5-fluoro-2-isopropyl-3-oxo-4H-quinoxalin-6-yl)methyl]piperazin-1-yl]-N-methyl-pyridine-2-carboxamide]
22 | 85 nM | 3800 nM | CNC(=O)c1ccc(N2CCN(Cc3ccc4nc(C(C)C)c(=O)[nH]c4c3F)CC2)c(C)n1 [Example 52, 5-[4-[(5-fluoro-2-isopropyl-3-oxo-4H-quinoxalin-6-yl)methyl]piperazin-1-yl]-N,6-dimethyl-pyridine-2-carboxamide]
23 | 26 nM | > 100000 nM | CNC(=O)c1ccc(N2CCN(Cc3ccc4nc(C(C)C)c(=O)[nH]c4c3F)CC2)cn1 [Example 53, 5-[4-[(5-fluoro-2-isopropyl-3-oxo-4H-quinoxalin-6-yl)methyl]piperazin-1-yl]-N-methyl-pyridine-2-carboxamide]
24 | 111 nM | > 100000 nM | CNC(=O)c1ccc(N2CCN(Cc3ccc4nc(C5CC5)c(=O)[nH]c4c3F)CC2)c(F)n1 [Example 54, 5-[4-[(2-cyclopropyl-5-fluoro-3-oxo-4H-quinoxalin-6-yl)methyl]piperazin-1-yl]-6-fluoro-N-methyl-pyridine-2-carboxamide]
25 | 5 nM | > 100000 nM | CNC(=O)c1ccc(N2CCN(Cc3ccc4nc(C5CC5)c(=O)[nH]c4c3F)CC2)c(C)n1 [Example 55, 5-[4-[(2-cyclopropyl-5-fluoro-3-oxo-4H-quinoxalin-6-yl)methyl]piperazin-1-yl]-N,6-dimethyl-pyridine-2-carboxamide]
26 | 8 nM | > 100000 nM | CNC(=O)c1ccc(N2CCN(Cc3ccc4nc(C5CC5)c(=O)[nH]c4c3F)CC2)cn1 [Example 56, 5-[4-[(2-cyclopropyl-5-fluoro-3-oxo-4H-quinoxalin-6-yl)methyl]piperazin-1-yl]-N-methyl-pyridine-2-carboxamide]
27 | 11 nM | > 100000 nM | CNC(=O)c1ccc(N2CCN(Cc3ccc4nc(OC)c(=O)[nH]c4c3C)CC2)c(C)n1 [Example 57, 5-[4-[(2-methoxy-5-methyl-3-oxo-4H-quinoxalin-6-yl)methyl]piperazin-1-yl]-N,6-dimethyl-pyridine-2-carboxamide]
28 | 6 nM | 2100 nM | CNC(=O)c1ccc(N2CCN(Cc3ccc4nc(OC)c(=O)[nH]c4c3C)CC2)c(C(F)F)n1 [Example 59, 6-(difluoromethyl)-5-[4-[(2-methoxy-5-methyl-3-oxo-4H-quinoxalin-6-yl)methyl]piperazin-1-yl]-N-methyl-pyridine-2-carboxamide]
29 | 23 nM | > 100000 nM | CNC(=O)c1ccc(N2CCN(Cc3ccc4nc(C)c(=O)[nH]c4c3C)CC2)c(C(F)F)n1 [Example 60, 6-(difluoromethyl)-5-[4-[(2,5-dimethyl-3-oxo-4H-quinoxalin-6-yl)methyl]piperazin-1-yl]-N-methyl-pyridine-2-carboxamide]

Source: US20250082630A1, “METHODS OF TREATING BRAIN TUMOURS AND NEUROBLASTOMAS” (AstraZeneca AB, priority 2021, published 2025)
